Measured values: US8598217B2, “Imidazole derivatives and their use as modulators of cyclin dependent kinases” (Astex Therapeutics Ltd., priority 2009, dated 2013)
pIC50: −log10 of the molar value. Where two headings read alike, the source gives them in different places.

Target: CDK4/cyclin D1 (Homo sapiens (Human), UniProt P11802)
Assay: CDK4/cyclin D1 enzymatic activity assay (Protocol A, Lance TR-FRET)
Format: biochemical
Settings: CDK4/cyclin D1, 175 nM pRb152, 3 μM ATP
Procedure: A 384-well microtiter Lance TR-FRET (time-resolved-fluorescence energy transfer) endpoint assay was used for CDK4/cyclin D1 kinase activity measurements. The same assay was used for IC50 determination of small molecule inhibitors. In general, the kinase reactions were carried out in 30 μL volumes in the reaction solution containing the following: 2 μL compound (in 20% DMSO), 18 uL CDK4/cyclin D1 in Assay Buffer (50 mM HEPES, pH 7.5, 5 mM MgCl2, 2 mM MnCl2, 1 mM DTT, 0.05% BSA, 0.02% Tween-20), 10 μL of the mixture of pRb152 and ATP. The final reaction mixture contains compound (inhibitor) with the concentration varying from […], 2% DMSO, 0.3 nM CDK4/cyclin D1, 175 nM pRb152, and 3 μM ATP (Amersham Pharmacia, Cat. No. 27-2056-01). All reactions were run at room temperature in 384-well white flat-bottom OptiPlates (Perkin Elmer, Cat. No. 6007290) for 60 min then were quenched by the addition of 10 μL of 120 mM EDTA. The signals were captured by the addition of 40 μL of the Detection Solution containing the following: Detection Buffer (50 mM HEPES, pH 7.5, 30 mM EDTA, 0.1% Triton x-100, 0.05% BSA), 70 ng/mL anti-phospho-pRb(S780) (Cell Signaling Technology, Cat. No. 9307S), 1 nM Lance Eu-W1024-Rabbit anti-IgG (Perkin Elmer, Cat. No. AD0082), and 20 nM SureLight™ Allophycocyanin-Streptavidin (Perkin Elmer, Cat. No. CR130-100). The resulted solutions were incubated at room temperature for 2 hours before read on the Evision Multilabel Reader (Perkin Elmer, Envision 2102-0010). Note: IC50<0.005 nM or IC50>10 μM indicates the true IC50 is out of detection range.
CDK4/cyclin D1 recombinant protein used in the enzymatic activity assay was prepared by coexpressing pDEST10-CDK4 (N-terminal His6) and pFastBacDual-GST-hCyclinD1 viruses in Sf21 cells. The overexpressed protein was purified by Ni-NTA affinity pull down to >80% pure by Sizing HPLC.

[1] = 60 min, room temperature, read-out: IC50 against CDK4 kinase
[2] = bound stated, read-out: IC50 values against CDK4

Chain of CDK4/cyclin D1 (P11802 whole entry): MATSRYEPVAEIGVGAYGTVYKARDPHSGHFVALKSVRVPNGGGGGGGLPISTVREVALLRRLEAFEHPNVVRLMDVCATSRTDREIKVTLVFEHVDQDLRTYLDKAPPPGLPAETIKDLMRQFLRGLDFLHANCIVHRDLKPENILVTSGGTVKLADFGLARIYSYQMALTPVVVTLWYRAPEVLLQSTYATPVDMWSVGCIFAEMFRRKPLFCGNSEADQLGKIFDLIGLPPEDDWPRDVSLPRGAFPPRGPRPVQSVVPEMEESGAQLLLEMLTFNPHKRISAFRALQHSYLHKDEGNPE
Chain of CDK4/cyclin D1 (P24385 whole entry partner): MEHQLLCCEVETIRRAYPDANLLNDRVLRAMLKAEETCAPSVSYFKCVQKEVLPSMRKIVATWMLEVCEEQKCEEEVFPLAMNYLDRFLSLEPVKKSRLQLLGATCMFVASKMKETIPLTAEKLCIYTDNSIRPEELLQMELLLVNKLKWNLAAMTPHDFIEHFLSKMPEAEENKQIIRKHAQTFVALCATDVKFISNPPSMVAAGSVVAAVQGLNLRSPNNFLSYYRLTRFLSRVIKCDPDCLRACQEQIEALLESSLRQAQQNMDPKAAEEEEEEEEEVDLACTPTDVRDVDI

| pIC50 [1] | pIC50 [2] | Compound |
| --- | --- | --- |
| 8.10 | – | N#Cc1ccc(C(=O)c2nc3ccc(N4CCNCC4)nc3[nH]2)cc1-c1cncc2ccccc12 [Example 166, 2-Isoquinolin-4-yl-4-(5-piperazin-1-yl-3H-imidazo[4,5-b]pyridine-2-carbonyl)-benzonitrile] |
| 7.92 | – | Cc1nn(C)c(C)c1-c1cc(C(=O)c2nc3ccc(N4CCC(N(C)C)CC4)nc3[nH]2)ccc1C#N [Example 173, 4-[5-(4-Dimethylamino-piperidin-1-yl)-3H-imidazo[4,5-b]pyridine-2-carbonyl]-2-(1,3,5-trimethyl-1H-pyrazol-4-yl)-benzonitrile] |
| 7.02 | – | Cc1nn(C)c(C)c1-c1cc(C(=O)c2nc3ccc(N4CCNCC4)nc3[nH]2)ccc1C#N [Example 189, 4-(5-piperazin-1-yl-3H-imidazo[4,5-b]pyridine-2-carbonyl)-2-(1,3,5-trimethyl-1H-pyrazol-4-yl)-benzonitrile] |
| – | > 5.00 | Cc1nn(C)c(C)c1-c1cc(C(=O)c2nc3ccc(N4CC5(CNC5)C4)nc3[nH]2)ccc1C#N [Example 207, 4-[5-(2,6-Diaza-spiro[3.3]hept-2-yl)-3H-imidazo[4,5-b]pyridine-2-carbonyl]-2-(1,3,5-trimethyl-1H-pyrazol-4-yl)-benzonitrile] |
| – | > 5.00 | Cc1nn(C)c(C)c1-c1cc(C(=O)c2nc3ccc(N4CCNC(C)(C)C4=O)nc3[nH]2)ccc1C#N [Example 209, 4-[5-(3,3-Dimethyl-2-oxo-piperazin-1-yl)-3H-imidazo[4,5-b]pyridine-2-carbonyl]-2-(1,3,5-trimethyl-1H-pyrazol-4-yl)-benzonitrile] |

The remaining lines, values behind:

| Compound | pIC50 [1] | pIC50 [2] |
| --- | --- | --- |
| Cc1n[nH]c(C)c1-c1cc(C(=O)c2nc3ccc(N4CCC(N(C)C)CC4)nc3[nH]2)ccn1 [Example 167, [5-(4-Dimethylamino-piperidin-1-yl)-3H-imidazo[4,5-b]pyridine-2-yl]-[2-(3,5-dimethyl-1H-pyrazol-4-yl)-pyridin-4-yl]-methanone] | 6.71 | – |
| Cc1n[nH]c(C)c1-c1cc(C(=O)c2nc3ccc(N4CCNCC4)nc3[nH]2)ccn1 [Example 169, [2-(3,5-Dimethyl-1H-pyrazol-4-yl)-pyridin-4-yl]-(5-piperazin-1-yl-3H-imidazo[4,5-b]pyridine-2-yl)-methanone] | 6.59 | – |
| Cc1n[nH]c(C)c1-c1cc(C(=O)c2nc3ccc(N4CCCNCC4)nc3[nH]2)ccn1 [Example 170, (5-[1,4]Diazepan-1-yl-3H-imidazo[4,5-b]-pyridin-2-yl)-[2-(3,5-dimethyl-1H-pyrazol-4-yl)-pyridin-4-yl]-methanone] | 6.26 | – |
| Cc1ncc2ccccc2c1-c1cc(C(=O)c2nc3cc(C(=O)N4CCNCC4)ccc3[nH]2)ccc1C#N [Example 174, 2-(3-Methyl-isoquinolin-4-yl)-4-[5-(piperazine-1-carbonyl)-1H-benzoimidazole-2-carbonyl]-benzonitrile] | 8.30 | – |
| O=C(c1ccnc(-c2cncc3ccccc23)c1)c1nc2ccc(S(=O)(=O)N3CCNCC3)cc2[nH]1 [Example 182, (2-Isoquinolin-4-yl-pyridin-4-yl)-[6-(piperazine-1-sulfonyl)-1H-benzoimidazol-2-yl]-methanone] | 7.11 | – |
